BindingDB's records for doi:10.1021/jm00045a022 (National Institute of Diabetes and Digestive and Kidney …, 1994)

Assay: Inhibition of [3H](+)-pentazocine binding to sigma receptor of guinea pig brain

**Q.** For `COc1cccc([C@]23CCN(C)[C@H](CC(=O)C2)C3)c1`, which Ki is on record?
**A.** Its Ki is 0.762 µM.

**Q.** With `C[N+]1(C)CCC2(c3cccc(O)c3)CC(=O)C(=Cc3ccccc3)C1C2` (configuration not stated) [5-(3-Hydroxy-phenyl)-2,2-dimethyl-7-oxo-8-[1-phenyl-meth-(E)-ylidene]-2-azonia-bicyclo[3.3.1]nonane; iodide] as the compound, how does the Ki read?
**A.** The Ki was 5.4 µM.
